Measured values reported in patent US20040106135A1, “Assay for PPAR ligand dependent gene modulation” (priority 2002, published 2004).

Legend:
HK-2 cells = test: Transcriptional profiling by DNA microarray, HK-2 cells; type: cell-based, human; conditions: 300 nM GW9578, 24 hours
Description: Points corresponding to PDK-4 and ADRP are highlighted in the plot. Points falling outside of the inner lines are changed by greater than 2-fold; those falling outside the outer lines by greater than 3-fold.
Expression profiling: Expression profiling of RNA samples was performed essentially as described (Lockhart et al., (1996) Nat. Biotechnol. 14:1675-80) using the Affymetrix human U95Av2 array. Briefly, RNA was isolated from 100 mm cell culture dishes, DNased, and 15 μg used as a template for double stranded cDNA synthesis according to standard protocols (Invitrogen). Reverse transcription was primed using a T7-modified oligo-dT primer (5-[…]-d(T)24-3′) (SEQ ID NO: 1). In vitro transcription was then performed on each double stranded cDNA synthesis, according to the manufacturer's (Enzo Diagnostics) instructions. The resultant cRNA products were purified using RNeasy columns (Qiagen), pooled, and quantitated spectrophotometrically. […]
Data Analysis: Affymetrix CEL files from GeneChip 4.0 (Affymetrix) were imported into Resolver 2.0 under an empirically derived Affymetrix error model (Rosetta Inpharmatics). […] Accordingly, the statistical significance (P-value) of a given expression data point takes into account the underlying error associated with the Affymetrix transcript abundance measurements as determined by this platform-specific error model. […]

[1] = tested on: hamster PDK-4 mRNA in kidney; test: PDK-4 mRNA induction in kidney of fat-fed hamsters; type: in vivo; conditions: single dose (GW9578 3 mg/kg, fenofibrate 100 mg/kg, gemfibrozil 500 mg/kg), 16 hours
Description: FIG. 4B is a bar graphs depicting the induction of PDK-4 mRNA in hamster kidney by PPARα ligands. […] After 16 hours, the tissues were harvested, total RNA isolated and levels of hamster PDK-4 mRNA were detected by RT-PCR. The values are normalized to 18S rRNA levels. The mean and SEM of three individual animals are shown.
PDK-4 plays a critical role in regulating glucose metabolism by phosphorylating and inactivating the pyruvate dehydrogenase complex in response to increased fatty acid oxidation. […] To investigate the response of PDK-4 to fibrate treatment in vivo, in another aspect of the present invention the fat-fed hamster model was employed, which closely mimics the serum lipid profiles of humans than other rodent models (Sullivan et al., (1993) Lab. Anim. Sci. 43:575-578). […] These doses were previously shown to yield maximal effects on blood triglycerides in hamster. […] In hamster kidney, the basal levels of PDK-4 mRNA were approximately 10-fold higher than in the liver (FIG. 4B). […] Fibrates are effective treatments for lowering serum triglyceride levels. To verify that the doses used in this study were efficacious, blood triglyceride levels were monitored over a 48 hour time course.
Real-time PCR: Fluorescence-based real-time PCR was performed essentially as described (Abbaszade et al., (1999) J. Biol. Chem. 274:23443-23450). […] Taqman-based real-time PCR expression profiling was performed using 25 ng of each cDNA according to the manufacturer's (PE Biosystems) instructions with fluorescence being monitored in real-time with an ABI Prism 7700 (PE Biosystems). Relative expression levels were determined essentially as described (Gibson et al., (1996) Genome Res. 6:995-1001) using standard curves for each transcript. Relative abundance was then determined from these standard curves, subtracting mRNA levels obtained from negative control reactions performed in the absence of reverse transcriptase, and normalized to 18S rRNA levels. […]

**Q.** What does the source list for CCCCCCCN(CCc1ccc(SC(C)(C)C(=O)O)cc1)C(=O)Nc1ccc(F)cc1F [GW9578, ureido-thioisobutyric acid]?
**A.** Increase of ADRP transcript versus controls (HK-2 cells): approximately 4 fold; Increase of PDK-4 transcript versus controls (HK-2 cells): approximately 4 fold; Induction of PDK-4 mRNA in kidney [1]: 7 fold
